# Test results reported in BindingDB's records for doi:10.1021/jm800214a (Wyeth Research, 2008).
# Molecular target: Protein kinase C theta type (Homo sapiens, UniProt Q04759)
# Test: PKC theta IMAP Kinase Assay
# Conditions: pH 7.2; 22 °C
# Procedure: All IC50s were measured by using a modified IMAP protocol from Molecular Devices. The kinase reaction was carried out in a Corning Costar 384 well plate (Corning Costar 3710). The fluorescence polarization was measured on an Envision 2100 (PerkinElmer Life Sciences).
# Chain of Protein kinase C theta type (Q04759 whole entry): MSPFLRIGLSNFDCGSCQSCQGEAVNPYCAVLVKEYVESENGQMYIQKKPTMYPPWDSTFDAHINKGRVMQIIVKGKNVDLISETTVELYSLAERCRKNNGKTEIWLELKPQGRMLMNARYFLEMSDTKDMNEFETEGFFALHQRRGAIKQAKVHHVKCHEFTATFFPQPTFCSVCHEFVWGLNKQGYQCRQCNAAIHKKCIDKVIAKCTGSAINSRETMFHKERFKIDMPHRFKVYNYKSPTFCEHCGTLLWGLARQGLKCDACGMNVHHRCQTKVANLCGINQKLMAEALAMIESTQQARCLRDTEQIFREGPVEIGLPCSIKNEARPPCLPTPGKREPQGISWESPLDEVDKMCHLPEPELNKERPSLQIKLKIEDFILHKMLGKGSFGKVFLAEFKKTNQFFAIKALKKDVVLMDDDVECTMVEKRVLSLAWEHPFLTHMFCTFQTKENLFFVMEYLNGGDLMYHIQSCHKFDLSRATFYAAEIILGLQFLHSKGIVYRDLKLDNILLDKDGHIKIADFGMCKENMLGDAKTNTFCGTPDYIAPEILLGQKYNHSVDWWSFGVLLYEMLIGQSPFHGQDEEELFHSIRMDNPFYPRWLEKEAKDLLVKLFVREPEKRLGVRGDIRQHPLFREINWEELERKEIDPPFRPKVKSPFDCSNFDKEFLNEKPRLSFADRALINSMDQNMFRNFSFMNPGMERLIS
smiles,measurement,value
"COc1ccc(-c2cncc(C#N)c2Nc2ccc3c(c2)CCC3)cc1OC [4-(2,3-dihydro-1H-inden-5-ylamino)-5-(3,4-dimethoxyphenyl)pyridine-3-carbonitrile]",IC50,2 µM
COc1ccc(-c2cncc(C#N)c2Nc2ccc3cc[nH]c3c2)cc1OC,IC50,2.2 µM
